Data: ChEMBL document CHEMBL5291721, “A preclinical secondary pharmacology resource illuminates target-adverse drug reaction associations of marketed drugs” (Nat Commun, 2023)

Key:
[1] = molecular target: T1, Alpha-2C adrenergic receptor (Homo sapiens, UniProt P18825); type: functional
T1 sequence (P18825 whole entry): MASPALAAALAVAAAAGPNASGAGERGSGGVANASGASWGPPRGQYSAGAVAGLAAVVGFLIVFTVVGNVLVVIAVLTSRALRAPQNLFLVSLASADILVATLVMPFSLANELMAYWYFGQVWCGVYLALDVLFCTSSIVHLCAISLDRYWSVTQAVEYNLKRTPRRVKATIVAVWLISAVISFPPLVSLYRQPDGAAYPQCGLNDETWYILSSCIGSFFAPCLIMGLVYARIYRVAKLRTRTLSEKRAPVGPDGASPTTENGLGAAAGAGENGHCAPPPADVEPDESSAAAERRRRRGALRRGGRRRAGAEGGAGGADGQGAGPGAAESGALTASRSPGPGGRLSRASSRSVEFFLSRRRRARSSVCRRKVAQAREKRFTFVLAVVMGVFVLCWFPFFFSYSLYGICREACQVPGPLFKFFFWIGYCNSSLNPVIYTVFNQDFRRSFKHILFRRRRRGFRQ

[2] = molecular target: Beta-1 adrenergic receptor (Homo sapiens, UniProt P08588); type: functional
[3] = molecular target: Beta-2 adrenergic receptor (Homo sapiens, UniProt P07550); type: functional, cell-based
[4] = molecular target: T2, Muscarinic acetylcholine receptor M2 (Homo sapiens, UniProt P08172); type: functional, cell-based
T2 sequence (P08172 whole entry): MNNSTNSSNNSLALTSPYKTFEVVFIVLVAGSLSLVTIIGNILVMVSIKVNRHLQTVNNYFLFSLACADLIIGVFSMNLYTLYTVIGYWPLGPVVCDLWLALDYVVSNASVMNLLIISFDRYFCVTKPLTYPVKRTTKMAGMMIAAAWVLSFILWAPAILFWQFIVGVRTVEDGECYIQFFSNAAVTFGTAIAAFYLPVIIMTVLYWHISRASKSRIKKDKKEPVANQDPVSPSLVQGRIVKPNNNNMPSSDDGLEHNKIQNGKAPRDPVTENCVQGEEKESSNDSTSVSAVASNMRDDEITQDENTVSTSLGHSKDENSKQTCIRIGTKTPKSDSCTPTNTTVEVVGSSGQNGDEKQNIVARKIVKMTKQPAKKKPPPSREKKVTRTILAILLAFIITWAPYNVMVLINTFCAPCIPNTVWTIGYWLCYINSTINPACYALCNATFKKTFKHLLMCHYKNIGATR

[5] = molecular target: T3, 5-hydroxytryptamine receptor 1A (Homo sapiens, UniProt P08908); type: functional, cell-based
T3 sequence (P08908 whole entry): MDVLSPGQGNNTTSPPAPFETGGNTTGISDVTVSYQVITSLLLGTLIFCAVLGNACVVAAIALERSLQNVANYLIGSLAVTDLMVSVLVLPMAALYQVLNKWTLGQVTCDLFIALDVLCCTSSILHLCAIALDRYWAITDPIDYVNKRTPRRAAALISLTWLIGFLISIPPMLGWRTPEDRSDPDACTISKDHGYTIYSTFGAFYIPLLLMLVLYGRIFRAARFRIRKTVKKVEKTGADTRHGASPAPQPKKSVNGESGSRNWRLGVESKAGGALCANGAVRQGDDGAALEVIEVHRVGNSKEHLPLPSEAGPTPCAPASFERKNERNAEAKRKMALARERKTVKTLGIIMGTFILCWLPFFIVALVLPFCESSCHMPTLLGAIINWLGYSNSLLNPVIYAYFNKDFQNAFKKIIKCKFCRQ

[6] = molecular target: T4, 5-hydroxytryptamine receptor 2C (Homo sapiens, UniProt P28335)
T4 sequence (P28335 whole entry): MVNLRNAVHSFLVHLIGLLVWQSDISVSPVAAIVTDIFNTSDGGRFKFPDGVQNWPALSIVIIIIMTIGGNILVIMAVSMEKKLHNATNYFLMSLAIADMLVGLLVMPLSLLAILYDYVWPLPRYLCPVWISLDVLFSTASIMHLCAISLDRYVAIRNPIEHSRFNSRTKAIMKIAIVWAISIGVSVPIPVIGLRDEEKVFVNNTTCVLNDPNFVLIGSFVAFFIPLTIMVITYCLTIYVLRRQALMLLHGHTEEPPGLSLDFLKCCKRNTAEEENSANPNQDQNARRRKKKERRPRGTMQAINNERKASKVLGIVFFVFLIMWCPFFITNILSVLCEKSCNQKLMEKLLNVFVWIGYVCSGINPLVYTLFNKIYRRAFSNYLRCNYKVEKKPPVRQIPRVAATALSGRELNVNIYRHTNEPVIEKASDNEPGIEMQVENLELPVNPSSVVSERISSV

[7] = molecular target: T5, 5-hydroxytryptamine receptor 3A (Homo sapiens, UniProt P46098); type: functional
T5 sequence (P46098 whole entry): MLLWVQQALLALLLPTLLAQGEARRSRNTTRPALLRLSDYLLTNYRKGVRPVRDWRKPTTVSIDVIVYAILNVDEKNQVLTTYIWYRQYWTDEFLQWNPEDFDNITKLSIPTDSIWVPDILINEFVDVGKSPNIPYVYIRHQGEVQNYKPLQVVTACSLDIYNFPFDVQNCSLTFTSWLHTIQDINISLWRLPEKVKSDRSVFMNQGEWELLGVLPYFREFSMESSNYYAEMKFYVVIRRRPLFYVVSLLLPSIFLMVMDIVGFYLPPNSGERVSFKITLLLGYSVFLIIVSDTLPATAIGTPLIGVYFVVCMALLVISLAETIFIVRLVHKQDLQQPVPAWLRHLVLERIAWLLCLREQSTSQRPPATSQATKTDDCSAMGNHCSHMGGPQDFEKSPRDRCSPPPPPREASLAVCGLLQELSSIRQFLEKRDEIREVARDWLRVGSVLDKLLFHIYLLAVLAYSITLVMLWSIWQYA

[8] = molecular target: Voltage-gated inwardly rectifying potassium channel KCNH2 (Homo sapiens, UniProt Q12809); type: functional; conditions: read-out: AC50
Further: assay procedure not described here.

Beta-1 adrenergic receptor, sequence (P08588 whole entry): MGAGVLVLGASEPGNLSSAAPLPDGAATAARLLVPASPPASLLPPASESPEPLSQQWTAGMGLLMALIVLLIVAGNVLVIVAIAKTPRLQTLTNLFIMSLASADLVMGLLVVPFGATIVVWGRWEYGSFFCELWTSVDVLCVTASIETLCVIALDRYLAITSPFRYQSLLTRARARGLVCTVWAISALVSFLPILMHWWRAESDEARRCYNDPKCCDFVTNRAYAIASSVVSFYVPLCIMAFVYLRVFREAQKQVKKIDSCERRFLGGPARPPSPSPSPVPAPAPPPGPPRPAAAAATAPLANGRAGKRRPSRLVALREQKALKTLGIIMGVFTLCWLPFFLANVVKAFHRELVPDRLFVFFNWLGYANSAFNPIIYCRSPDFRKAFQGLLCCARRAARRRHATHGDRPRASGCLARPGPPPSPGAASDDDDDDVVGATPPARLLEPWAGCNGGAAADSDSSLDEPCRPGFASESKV
Beta-2 adrenergic receptor, sequence (P07550 whole entry): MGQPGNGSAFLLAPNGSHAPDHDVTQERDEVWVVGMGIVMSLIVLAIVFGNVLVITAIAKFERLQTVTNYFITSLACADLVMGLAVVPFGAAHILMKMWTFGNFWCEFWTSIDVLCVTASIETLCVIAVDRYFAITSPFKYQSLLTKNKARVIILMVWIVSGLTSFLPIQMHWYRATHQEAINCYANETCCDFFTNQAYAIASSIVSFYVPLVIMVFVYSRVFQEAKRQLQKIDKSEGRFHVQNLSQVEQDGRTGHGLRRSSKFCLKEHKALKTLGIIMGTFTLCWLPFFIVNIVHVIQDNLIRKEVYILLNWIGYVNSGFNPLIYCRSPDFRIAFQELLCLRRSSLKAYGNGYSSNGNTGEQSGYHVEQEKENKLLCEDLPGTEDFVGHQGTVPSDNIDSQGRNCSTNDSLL
Voltage-gated inwardly rectifying potassium channel KCNH2, sequence (Q12809 whole entry): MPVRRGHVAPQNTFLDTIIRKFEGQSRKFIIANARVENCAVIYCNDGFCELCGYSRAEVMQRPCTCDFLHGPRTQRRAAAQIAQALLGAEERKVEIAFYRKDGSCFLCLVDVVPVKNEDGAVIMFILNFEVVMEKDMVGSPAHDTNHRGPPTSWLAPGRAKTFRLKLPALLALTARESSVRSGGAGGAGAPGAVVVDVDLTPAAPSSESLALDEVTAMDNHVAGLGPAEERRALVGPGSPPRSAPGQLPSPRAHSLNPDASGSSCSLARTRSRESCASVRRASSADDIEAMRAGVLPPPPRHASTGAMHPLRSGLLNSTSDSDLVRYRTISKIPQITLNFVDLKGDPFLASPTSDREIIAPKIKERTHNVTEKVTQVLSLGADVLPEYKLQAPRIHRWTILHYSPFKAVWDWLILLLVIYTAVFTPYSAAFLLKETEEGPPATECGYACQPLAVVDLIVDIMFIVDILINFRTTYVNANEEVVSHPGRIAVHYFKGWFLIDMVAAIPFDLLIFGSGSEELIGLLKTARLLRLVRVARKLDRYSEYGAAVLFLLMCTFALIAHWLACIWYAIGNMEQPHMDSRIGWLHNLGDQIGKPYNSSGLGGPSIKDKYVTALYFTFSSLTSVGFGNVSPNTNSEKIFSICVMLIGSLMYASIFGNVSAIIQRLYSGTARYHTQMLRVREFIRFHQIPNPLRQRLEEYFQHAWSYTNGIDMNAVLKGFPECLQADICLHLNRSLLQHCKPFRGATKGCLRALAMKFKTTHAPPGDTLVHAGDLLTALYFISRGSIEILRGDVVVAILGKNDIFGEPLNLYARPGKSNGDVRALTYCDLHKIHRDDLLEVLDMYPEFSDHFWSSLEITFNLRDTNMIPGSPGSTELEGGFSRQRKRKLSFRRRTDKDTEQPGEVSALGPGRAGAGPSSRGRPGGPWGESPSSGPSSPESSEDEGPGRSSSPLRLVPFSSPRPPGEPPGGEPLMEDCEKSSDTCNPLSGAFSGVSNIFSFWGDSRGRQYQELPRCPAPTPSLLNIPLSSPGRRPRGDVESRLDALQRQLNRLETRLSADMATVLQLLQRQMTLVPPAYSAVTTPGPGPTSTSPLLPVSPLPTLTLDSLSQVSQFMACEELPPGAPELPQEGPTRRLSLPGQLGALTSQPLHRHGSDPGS

Row | Compound | AC50 [1] [µM] | AC50 [2] [µM] | AC50 [3] [µM] | AC50 [4] [µM] | AC50 [5] [µM] | AC50 [6] [µM] | AC50 [7] [µM] | AC50 [8] [µM]
1 | CN(C)CCC=C1c2ccccc2C(C)(C)c2ccccc21 | 9.67 | 5.2 | > 30 | 0.25 | 26 | 5.8 | 4.4 | 4.13
2 | CCOC(=O)[C@H](CCc1ccccc1)N[C@@H](C)C(=O)N1[C@H](C(=O)O)C[C@@H]2CCC[C@@H]21 | > 10 | > 10 | > 30 | > 10 | > 10 | > 30 | > 30 | > 30
3 | Nc1nc(NC2CC2)c2ncn([C@H]3C=C[C@@H](CO)C3)c2n1 [ABACAVIR] | > 30 | > 30 | > 30 | > 30 | > 30 | > 30 | > 30 | > 30
4 | CC(=O)Nc1ccc(O)cc1 [ACETAMINOPHEN] | > 30 | > 30 | > 30 | > 30 | > 30 | > 30 | > 30 | > 30
5 | CNC(=O)c1ccccc1Sc1ccc2c(/C=C/c3ccccn3)n[nH]c2c1 [AXITINIB] | > 30 | > 30 | > 30 | 4.2 | > 30 | > 30 | > 30 | > 30
6 | NCC(CC(=O)O)c1ccc(Cl)cc1 (stereo not given) [BACLOFEN] | > 30 | > 30 | > 30 | > 30 | > 30 | > 30 | > 30 | > 30
7 | CC(C)C[C@H]1C(=O)N2CCC[C@H]2[C@]2(O)O[C@](NC(=O)[C@@H]3C=C4c5cccc6[nH]c(Br)c(c56)C[C@H]4N(C)C3)(C(C)C)C(=O)N12 [BROMOCRIPTINE] |  | 9.23 | > 30 | > 30 | 3.1 | 12 | > 30 | > 30
8 | Cc1ccc(-c2cc(C(F)(F)F)nn2-c2ccc(S(N)(=O)=O)cc2)cc1 [CELECOXIB] | > 10 | > 10 | > 30 | > 10 | > 10 | > 30 | > 30 | 
9 | CN(C)CCC(c1ccc(Cl)cc1)c1ccccn1 (stereo not given) [CHLORPHENIRAMINE] | > 10 | > 10 | > 30 | > 10 | > 10 | > 10 | > 10 | 
10 | O=C(Cc1ccc(-c2ccccc2)cc1)Nc1ccccn1 [DIFENPIRAMIDE] | > 30 |  | > 30 | > 30 | > 30 | > 30 | > 30 | > 30
11 | C[C@H]1CNCCc2ccc(Cl)cc21 [LORCASERIN] | 3.6 | 8.3 | > 30 | > 30 | > 30 |  | > 30 | 6.5
12 | CC[C@H]1[C@@H](O)[C@@H]2[C@H](CC[C@]3(C)[C@@H]([C@H](C)CCC(=O)O)CC[C@@H]23)[C@@]2(C)CC[C@@H](O)C[C@@H]12 [OBETICHOLIC ACID] | > 30 | > 30 |  | 16 | > 30 | > 30 | > 30 | > 30
13 | COc1ccc(CC(C)(C)NC[C@H](O)c2cc(O)cc3c2OCC(=O)N3)cc1 [OLODATEROL] | > 30 | 0.58 |  | 5.1 | > 30 | > 30 | > 30 | 6.3
14 | CCCN1C[C@H](CSC)C[C@@H]2c3cccc4[nH]cc(c34)C[C@H]21 [PERGOLIDE] | 1.04 | > 30 | > 30 | > 30 |  |  | > 30 | 0.22
15 | C1CCC(C(CC2CCCCN2)C2CCCCC2)CC1 (stereo not given) [PERHEXILINE] | 16.5 | > 30 | > 30 |  | 9.1 | > 30 | > 30 | 
16 | c1cnc(N2CCN(Cc3ccc4c(c3)OCO4)CC2)nc1 [PIRIBEDIL] | 0.96 |  | > 30 | > 30 | > 30 | > 30 | > 30 | 19
17 | Cc1c(C(=O)NN2CCCCC2)nn(-c2ccc(Cl)cc2Cl)c1-c1ccc(Cl)cc1 [RIMONABANT] | 13 | > 30 | > 30 |  | > 30 | > 30 | > 30 | > 30
18 | Cc1cn([C@H]2C=C[C@@H](CO)O2)c(=O)[nH]c1=O [STAVUDINE] | > 10 | > 10 |  | > 10 | > 10 | > 30 | > 10 | > 30
19 | Clc1ccc2nsnc2c1NC1=NCCN1 [TIZANIDINE] | 1.31 | > 10 |  | > 30 | > 30 | > 30 | > 30 | > 30
20 | O=C(O[C@H]1C[C@H]2CC[C@@H](C1)[N+]21CCCC1)C(O)(c1ccccc1)c1ccccc1 [TROSPIUM] | > 30 | > 30 |  | 0.0061 | > 30 | > 30 | > 30 | 0.63
21 | Nc1ccn([C@H]2CC[C@@H](CO)O2)c(=O)n1 [ZALCITABINE] | > 10 | > 10 |  | > 10 | > 10 | > 30 | > 30 | > 30
22 | Cc1cn([C@H]2C[C@H](N=[N+]=[N-])[C@@H](CO)O2)c(=O)[nH]c1=O [ZIDOVUDINE] | > 10 | > 10 |  | > 10 | > 10 | > 30 | > 30 | > 30
23 | NS(=O)(=O)Cc1noc2ccccc12 [ZONISAMIDE] | > 10 | > 10 |  | > 10 | > 10 | > 30 | > 30 | > 30
